Assay results taken from the NIST ThermoML archive (doi:10.1021/acs.jced.6b00429).
Numbers after ± are expanded uncertainties.

Settings: Liquid, Ebulliometric method (Recirculating still)

| vapor or sublimation pressure (394.71 K) [kPa] | vapor or sublimation pressure (400.93 K) [kPa] | vapor or sublimation pressure (406.16 K) [kPa] | vapor or sublimation pressure (365.01 K) [kPa] | vapor or sublimation pressure (370.79 K) [kPa] | vapor or sublimation pressure (375.66 K) [kPa] | SMILES |
| --- | --- | --- | --- | --- | --- | --- |
| 53.3 ± 0.5 | 66.7 ± 0.5 | 80 ± 0.6 | – | – | – | OCC(F)(F)C(F)(F)C(F)(F)C(F)F [2,2,3,3,4,4,5,5-octafluoro-1-pentanol] |
| – | – | – | 53.3 ± 0.5 | 66.7 ± 0.5 | 80 ± 0.6 | OCC(F)(F)C(F)F [2,2,3,3-tetrafluoro-1-propanol] |
